According to patent US10131652B2, “Pyrimidinyloxy benzene derivatives as herbicides” (E. I. DU PONT DE NEMOURS AND COMPANY, priority 2014, dated 2018):
Like-named read-outs stand apart in the source and are kept apart here.

Tests used:
Experiment in all cases: Test D pre-/postemergence plant response
Format in all cases: in vivo
[1] = system: soybean (Glycine max); conditions: Glycine max, pre-emergence; Preemergence; 62 g ai/ha; scale 0 to 100 (0 no effect, 100 complete control); read-out: Plant response rating, Soybean
Summary of the method: (§1)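 Test chemicals were formulated in a non-phytotoxic solvent mixture containing surfactant and applied either preemergence to seeds in loam–sand soil or postemergence to plants 2 to 18 cm tall (1- to 4-leaf stage). Response was rated visually against controls after 13 to 15 days, from 0 (none) to 100 (complete control).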

[2] = system: pigweed (Amaranthus retroflexus); conditions: Amaranthus retroflexus; for pest or weed control at 31 g/ha: 31 g ai/ha; for pest or weed control at 62 g/ha: 62 g ai/ha; for pest or weed control at 125 g/ha: 125 g ai/ha
Summary of the method: as §1

[3] = system: oilseed rape (Brassica napus); conditions: Brassica napus; for plant injury at 31 g/ha: 31 g ai/ha; for plant injury at 62 g/ha: 62 g ai/ha
Summary of the method: as §1

[4] = system: morningglory (Ipomoea coccinea); conditions: Ipomoea; for pest or weed control at 31 g/ha: 31 g ai/ha; for pest or weed control at 62 g/ha: 62 g ai/ha
Summary of the method: as §1

[5] = system: corn (Zea mays); conditions: Zea mays; for Corn plant response rating (crop injury, 0 = no effect, 100 = complete kill) at 62 g/ha: 62 g ai/ha
Summary of the method: as §1

[6] = system: winter wheat (Triticum aestivum); conditions: Triticum aestivum; for plant injury at 31 g/ha: 31 g ai/ha; for plant injury at 62 g/ha: 62 g ai/ha; for plant injury at 125 g/ha: 125 g ai/ha
Summary of the method: as §1

[7] = system: Italian ryegrass (Lolium multiflorum); conditions: Lolium multiflorum; for pest or weed control at 31 g/ha: 31 g ai/ha; for pest or weed control at 62 g/ha: 62 g ai/ha; for pest or weed control at 125 g/ha: 125 g ai/ha
Summary of the method: as §1

[8] = system: giant foxtail (Setaria faberii); conditions: Setaria faberi; for pest or weed control at 16 g/ha: 16 g ai/ha; for pest or weed control at 31 g/ha: 31 g ai/ha; for pest or weed control at 62 g/ha: 62 g ai/ha; for pest or weed control at 125 g/ha: 125 g ai/ha
Summary of the method: as §1

[9] = system: waterhemp (common waterhemp, Amaranthus rudis); conditions: Amaranthus tuberculatus; for pest or weed control at 31 g/ha: 31 g ai/ha; for pest or weed control at 62 g/ha: 62 g ai/ha; for pest or weed control at 125 g/ha: 125 g ai/ha
Summary of the method: as §1

[10] = system: yellow nutsedge (Cyperus esculentus); conditions: Cyperus; for pest or weed control at 31 g/ha: 31 g ai/ha; for pest or weed control at 62 g/ha: 62 g ai/ha; for pest or weed control at 125 g/ha: 125 g ai/ha
Summary of the method: as §1

[11] = post-emergence, Postemergence, scale 0 to 100, 0 no effect, 100 complete control, read-out: Plant response rating, Pigweed
[12] = pre-emergence, Preemergence, scale 0 to 100 (0 no effect, 100 complete control), read-out: Plant response rating, Pigweed
[13] = pre-emergence, Preemergence, scale 0 to 100 (0 no effect, 100 complete control), read-out: Plant response rating, Oilseed Rape
[14] = pre-emergence, Preemergence, scale 0 to 100 (0 no effect, 100 complete control), read-out: Plant response rating, Morningglory
[15] = post-emergence, Postemergence, scale 0 to 100, 0 no effect, 100 complete control, read-out: Plant response rating, Wheat
[16] = pre-emergence, Preemergence, scale 0 to 100 (0 no effect, 100 complete control), read-out: Plant response rating, Wheat
[17] = post-emergence, Postemergence, scale 0 to 100, 0 no effect, 100 complete control, read-out: Plant response rating, Ryegrass, Italian
[18] = pre-emergence, Preemergence, scale 0 to 100 (0 no effect, 100 complete control), read-out: Plant response rating, Ryegrass, Italian
[19] = post-emergence, Postemergence, scale 0 to 100 (0 no effect, 100 complete control), read-out: Foxtail, Giant plant response rating
[20] = post-emergence, Postemergence, scale 0 to 100, 0 no effect, 100 complete control, read-out: Plant response rating, Foxtail, Giant
[21] = pre-emergence, Preemergence, scale 0 to 100 (0 no effect, 100 complete control), read-out: Plant response rating, Foxtail, Giant
[22] = post-emergence, Postemergence, scale 0 to 100, 0 no effect, 100 complete control, read-out: Plant response rating, Waterhemp
[23] = pre-emergence, Preemergence, scale 0 to 100 (0 no effect, 100 complete control), read-out: Plant response rating, Waterhemp
[24] = post-emergence, Postemergence, scale 0 to 100, 0 no effect, 100 complete control, read-out: Plant response rating, Nutsedge, Yellow
[25] = pre-emergence, Preemergence, scale 0 to 100 (0 no effect, 100 complete control), read-out: Plant response rating, Nutsedge, Yellow

Fc1cccc(Oc2ncc(Cl)cn2)c1-c1cc(C(F)F)no1 [Compound 144, 5-chloro-2-[2-[3-(difluoromethyl)-5-isoxazolyl]-3-fluorophenoxy]pyrimidine]
15%: Corn plant response rating (crop injury, 0 = no effect, 100 = complete kill) at 62 g/ha ([5]; pre-emergence, Preemergence, scale 0 to 100 (0 no effect, 100 complete control)) | pest or weed control at 16 g/ha ([10]; pre-emergence, Preemergence, 16 g ai/ha, scale 0 to 100 (0 no effect, 100 complete control), read-out: Plant response rating, Nutsedge, Yellow)
60%: pest or weed control at 31 g/ha [7, 18]
75%: pest or weed control at 31 g/ha [4, 14]
90%: plant injury at 62 g/ha [1]
25%: plant injury at 125 g/ha ([6]; pre-emergence, Preemergence, read-out: Plant response rating (scale 0 to 100), Wheat) | plant injury at 62 g/ha [6, 16] | pest or weed control at 62 g/ha [8, 20] | pest or weed control at 125 g/ha [8, 20]
5%: plant injury at 16 g/ha ([5]; post-emergence, Postemergence, 16 g ai/ha, scale 0 to 100 (0 no effect, 100 complete control), read-out: Corn plant response rating) | plant injury at 31 g/ha ([5]; post-emergence, Postemergence, 31 g ai/ha, scale 0 to 100 (0 no effect, 100 complete control), read-out: Corn plant response rating) | Corn plant response rating (crop injury, 0 = no effect, 100 = complete kill) at 125 g/ha ([5]; post-emergence, Postemergence, 125 g ai/ha, scale 0 to 100, 0 no effect, 100 complete control) | Corn plant response rating (crop injury, 0 = no effect, 100 = complete kill) at 31 g/ha ([5]; pre-emergence, Preemergence, 31 g ai/ha, scale 0 to 100 (0 no effect, 100 complete control)) | plant injury at 31 g/ha [6, 16] | pest or weed control at 31 g/ha ([7]; post-emergence, Postemergence, scale 0 to 100 (0 no effect, 100 complete control), read-out: Ryegrass, Italian plant response rating) | pest or weed control at 16 g/ha ([7]; pre-emergence, Preemergence, 16 g ai/ha, scale 0 to 100 (0 no effect, 100 complete control), read-out: Plant response rating, Ryegrass, Italian) | pest or weed control at 16 g/ha [8, 19] | pest or weed control at 31 g/ha ([10]; post-emergence, Postemergence, scale 0 to 100 (0 no effect, 100 complete control), read-out: Nutsedge, Yellow plant response rating) | pest or weed control at 62 g/ha [10, 24] | pest or weed control at 125 g/ha [10, 24]
30%: pest or weed control at 31 g/ha [10, 25]
0%: Corn plant response rating (crop injury, 0 = no effect, 100 = complete kill) at 16 g/ha ([5]; pre-emergence, Preemergence, 16 g ai/ha, scale 0 to 100 (0 no effect, 100 complete control)) | plant injury at 16 g/ha ([6]; pre-emergence, Preemergence, 16 g ai/ha, scale 0 to 100 (0 no effect, 100 complete control), read-out: Plant response rating, Wheat)
100%: pest or weed control at 62 g/ha [2, 11] | pest or weed control at 125 g/ha [2, 11] | pest or weed control at 125 g/ha ([2]; pre-emergence, Preemergence, read-out: Plant response rating (scale 0 to 100), Pigweed) | pest or weed control at 16 g/ha ([2]; pre-emergence, Preemergence, 16 g ai/ha, scale 0 to 100 (0 no effect, 100 complete control), read-out: Plant response rating, Pigweed) | pest or weed control at 31 g/ha [2, 12] | pest or weed control at 62 g/ha [2, 12] | plant injury at 125 g/ha ([3]; pre-emergence, Preemergence, 125 g ai/ha, read-out: Plant response rating (scale 0 to 100), Oilseed Rape) | plant injury at 31 g/ha [3, 13] | plant injury at 62 g/ha [3, 13] | pest or weed control at 125 g/ha ([4]; pre-emergence, Preemergence, 125 g ai/ha, read-out: Plant response rating (scale 0 to 100), Morningglory) | pest or weed control at 62 g/ha [4, 14] | pest or weed control at 125 g/ha ([8]; pre-emergence, Preemergence, read-out: Plant response rating (scale 0 to 100), Foxtail, Giant) | pest or weed control at 16 g/ha [8, 21] | pest or weed control at 31 g/ha [8, 21] | pest or weed control at 62 g/ha [8, 21] | pest or weed control at 62 g/ha [9, 22] | pest or weed control at 125 g/ha [9, 22] | pest or weed control at 125 g/ha ([9]; pre-emergence, Preemergence, read-out: Plant response rating (scale 0 to 100), Waterhemp) | pest or weed control at 16 g/ha ([9]; pre-emergence, Preemergence, 16 g ai/ha, scale 0 to 100 (0 no effect, 100 complete control), read-out: Plant response rating, Waterhemp) | pest or weed control at 31 g/ha [9, 23] | pest or weed control at 62 g/ha [9, 23]
85%: pest or weed control at 31 g/ha ([4]; post-emergence, Postemergence, scale 0 to 100 (0 no effect, 100 complete control), read-out: Morningglory plant response rating) | pest or weed control at 62 g/ha ([4]; post-emergence, Postemergence, scale 0 to 100, 0 no effect, 100 complete control, read-out: Plant response rating, Morningglory) | pest or weed control at 31 g/ha ([9]; post-emergence, Postemergence, scale 0 to 100 (0 no effect, 100 complete control), read-out: Waterhemp plant response rating) | pest or weed control at 125 g/ha ([10]; pre-emergence, Preemergence, read-out: Plant response rating (scale 0 to 100), Nutsedge, Yellow)
20%: pest or weed control at 16 g/ha ([4]; pre-emergence, Preemergence, 16 g ai/ha, scale 0 to 100 (0 no effect, 100 complete control), read-out: Plant response rating, Morningglory)
10%: Corn plant response rating (crop injury, 0 = no effect, 100 = complete kill) at 62 g/ha ([5]; post-emergence, Postemergence, scale 0 to 100, 0 no effect, 100 complete control) | plant injury at 31 g/ha ([6]; post-emergence, Postemergence, scale 0 to 100 (0 no effect, 100 complete control), read-out: Wheat plant response rating) | plant injury at 62 g/ha [6, 15] | plant injury at 125 g/ha [6, 15] | pest or weed control at 62 g/ha [7, 17] | pest or weed control at 125 g/ha [7, 17] | pest or weed control at 31 g/ha [8, 19]
80%: plant injury at 31 g/ha ([3]; post-emergence, Postemergence, scale 0 to 100 (0 no effect, 100 complete control), read-out: Oilseed Rape plant response rating) | pest or weed control at 62 g/ha [7, 18]
65%: plant injury at 125 g/ha ([5]; pre-emergence, Preemergence, 125 g ai/ha, read-out: Plant response rating (scale 0 to 100), Corn)
95%: plant injury at 62 g/ha ([3]; post-emergence, Postemergence, scale 0 to 100, 0 no effect, 100 complete control, read-out: Plant response rating, Oilseed Rape)
98%: pest or weed control at 31 g/ha ([2]; post-emergence, Postemergence, scale 0 to 100 (0 no effect, 100 complete control), read-out: Pigweed plant response rating) | plant injury at 16 g/ha ([3]; pre-emergence, Preemergence, 16 g ai/ha, scale 0 to 100 (0 no effect, 100 complete control), read-out: Plant response rating, Oilseed Rape) | pest or weed control at 125 g/ha ([7]; pre-emergence, Preemergence, read-out: Plant response rating (scale 0 to 100), Ryegrass, Italian)
50%: pest or weed control at 62 g/ha [10, 25]
